Results from US11149019B2, “Phenylpyridine derivative and pharmaceutical composition comprising the same” (Daewoong Pharmaceutical Co., Ltd., priority 2017, dated 2021).

Tests used:
ITK = biological target: T1, ITK (Homo sapiens, UniProt Q08881); assay: ADP-Glo + ITK Kinase enzyme system kit, inhibitory activity against ITK; assay type: biochemical; settings: ITK enzyme 0.4 ng/ul, ATP final concentration of 25 ul, 30° C. for 1 hour, luminescence, duplicate
T1 construct: purchased Promega Corporation
T1 sequence (Q08881 1-620): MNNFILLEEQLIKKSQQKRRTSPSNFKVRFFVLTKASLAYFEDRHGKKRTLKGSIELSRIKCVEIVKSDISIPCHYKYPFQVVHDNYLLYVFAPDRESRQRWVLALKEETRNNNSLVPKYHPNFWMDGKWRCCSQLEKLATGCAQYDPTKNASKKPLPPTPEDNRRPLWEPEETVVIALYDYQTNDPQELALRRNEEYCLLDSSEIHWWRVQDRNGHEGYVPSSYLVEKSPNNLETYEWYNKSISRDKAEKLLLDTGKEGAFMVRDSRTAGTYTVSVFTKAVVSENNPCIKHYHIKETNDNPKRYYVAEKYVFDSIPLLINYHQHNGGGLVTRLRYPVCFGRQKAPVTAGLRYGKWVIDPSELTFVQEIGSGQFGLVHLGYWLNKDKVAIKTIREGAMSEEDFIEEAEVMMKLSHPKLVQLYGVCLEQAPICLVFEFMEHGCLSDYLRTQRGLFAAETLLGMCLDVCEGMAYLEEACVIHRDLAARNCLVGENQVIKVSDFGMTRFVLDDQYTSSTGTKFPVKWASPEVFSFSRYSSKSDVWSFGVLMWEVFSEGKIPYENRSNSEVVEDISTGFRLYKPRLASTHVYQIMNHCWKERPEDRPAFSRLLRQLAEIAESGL
Protocol: (§1) Inhibitory activities against BTK and ITK were measured for the compounds prepared in the above Examples as follows.
The inhibitory activity against ITK was evaluated using ‘ADP-Glo™+ITK Kinase enzyme system’ kit (Promega Corporation). In a white 96-well plate, 10 ul of ITK enzyme prepared so as to have a final concentration of 0.4 ng/ul was mixed with 5 ul of compounds having a final concentration of 1 uM in the case of evaluating a single concentration of compound and a concentration of 1000, 300, 100, 30, 10, 3, 1, 0.3, 0.1 and 0.03 nM in the case of IC50 evaluation, and then reacted at room temperature for 15 minutes. To the plate on which reactions were completed, 5 ul of substrate and 5 ul of ATP prepared so as to have a final concentration of […] added and then allowed to react at 30° C. for 1 hour. All wells of the plate were treated with 25 ul of ADP-Glo™ reagent and then allowed to react at 30° C. for 40 minutes. After that, all wells were treated with 50 ul of kinase detection buffer, and then allowed to react at 30° C. for 30 minutes under light shielding conditions. For the plate on which all reactions were completed, luminescence was measured and the results were calculated. Evaluation was carried out in duplicate, and negative control and positive control were calculated depending on whether or not the enzyme was added without treatment of the compound. The IC50 was calculated based on the calculated values.

BTK = biological target: T2, BTK (Homo sapiens, UniProt Q06187); assay: ADP-Glo + BTK Kinase enzyme system kit, inhibitory activity against BTK; assay type: biochemical; settings: BTK enzyme 1 ng/ul, ATP 10 μM, 30° C. for 1 hour, luminescence, duplicate
T2 construct: purchased Promega Corporation
Protocol: as §1
The inhibitory activities against BTK were evaluated using ‘ADP-Glo™+BTK Kinase enzyme system’ kit (Promega Corporation). In a white 96-well plate, 10 ul of BTK enzyme prepared so as to have a final concentration of 1 ng/ul was mixed with 5 μl of compounds having a final concentration of […] the case of evaluating a single concentration of compound and a concentration of 1000, 300, 100, 30, 10, 3, 1, 0.3, 0.1 and 0.03 nM in the case of IC50 evaluation, and then reacted at room temperature for 15 minutes. 5 ul of substrate and 5 ul of ATP prepared so as to have a final concentration of 10 μM were added to the plate on which reactions were completed, and then allowed to react at 30° C. for 1 hour. All wells of the plate were treated with 25 ul of ADP-Glo™ reagent and allowed to react at 30° C. for 40 minutes. After that, all wells were treated with 50 ul of kinase detection buffer, and then reacted at 30° C. for 30 minutes under light shielding conditions. For the plate on which all reactions were completed, luminescence was measured and the results were calculated. Evaluation was carried out in duplicate, and negative control and positive control were calculated depending on whether or not the enzyme was added without treatment of the compound. The IC50 was calculated based on the calculated values.

T2 sequence (Q06187 whole entry): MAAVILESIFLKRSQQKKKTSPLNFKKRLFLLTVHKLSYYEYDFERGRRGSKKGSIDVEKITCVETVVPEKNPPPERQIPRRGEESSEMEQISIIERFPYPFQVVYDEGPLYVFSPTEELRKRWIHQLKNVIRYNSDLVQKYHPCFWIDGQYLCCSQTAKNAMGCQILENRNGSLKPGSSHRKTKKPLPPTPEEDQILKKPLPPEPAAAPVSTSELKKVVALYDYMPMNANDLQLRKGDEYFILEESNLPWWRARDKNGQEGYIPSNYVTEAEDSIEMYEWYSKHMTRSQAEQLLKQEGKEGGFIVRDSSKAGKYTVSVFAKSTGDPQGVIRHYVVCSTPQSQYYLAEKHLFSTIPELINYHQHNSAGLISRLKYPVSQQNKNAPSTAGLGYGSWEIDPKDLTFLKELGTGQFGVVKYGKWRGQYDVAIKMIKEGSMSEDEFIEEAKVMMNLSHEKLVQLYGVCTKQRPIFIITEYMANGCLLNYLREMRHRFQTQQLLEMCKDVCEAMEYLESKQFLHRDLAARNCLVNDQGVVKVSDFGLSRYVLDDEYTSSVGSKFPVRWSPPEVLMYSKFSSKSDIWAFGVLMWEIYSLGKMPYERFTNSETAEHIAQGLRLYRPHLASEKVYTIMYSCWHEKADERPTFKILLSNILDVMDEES

Row | SMILES | IC50 (ITK) [nM] | IC50 (BTK) [nM]
1 | C=CC(=O)Nc1cccc(-c2cc(CN3CCCN(C)CC3)cc(Nc3ncc(C)s3)n2)c1 [Compound 55, N-(3-(4-((4-methyl-1,4-diazepan-1-yl)methyl)-6-(5-methylthiazol-2-ylamino)pyridin-2-yl)phenyl)acrylamide] | 13.4 | 10.6
2 | C=CC(=O)Nc1cc(-c2cc(CN3CCOCC3)cc(Nc3ncc(C)s3)n2)ccc1F [Compound 56, N-(2-fluoro-5-(6-((5-methylthiazol-2-yl)amino)-4-(morpholinomethyl)pyridin-2-yl)phenyl)acrylamide] | 4.2 | 1.8
3 | C=CC(=O)Nc1cc(F)cc(-c2cc(CN3CCOCC3)cc(Nc3ncc(C)s3)n2)c1 [Compound 57, N-(3-fluoro-5-(6-((5-methylthiazol-2-yl)amino)-4-(morpholinomethyl)pyridin-2-yl)phenyl)acrylamide] | 23.2 | > 6.3
4 | C=CC(=O)Nc1cc(-c2cc(CN3CCOCC3)cc(Nc3ncc(C)s3)n2)ccc1C [Compound 58] | 14.1 | 6.4
5 | C=CC(=O)Nc1cccc(-c2cc(CN3CCN(C(C)=O)CC3)cc(Nc3ncc(C)s3)n2)c1 [Compound 60, N-(3-(4-((4-acetylpiperazin-1-yl)methyl)-6-(5-methylthiazol-2-ylamino)pyridin-2-yl)phenyl)acrylamide] | 2.2 | 1.9
6 | C=CC(=O)Nc1cccc(-c2cc(CN3CCN(C(=O)C4CC4)CC3)cc(Nc3ncc(C)s3)n2)c1 [Compound 63, N (3(4((4-(cyclopropanecarbonyl)piperazin-1-yl)methyl)-6-(5-methylthiazol-2-ylamino)pyridin-2-yl)phenyl)acrylamide] | 9 | 6.7
7 | C=CC(=O)Nc1cccc(-c2cc(CN3CCOCC3)cc(NC(=O)NC)n2)c1 [Compound 67, N-(3-(6-(3-methylureido)-4-(morpholinomethyl)pyridin-2-yl)phenyl)acrylamide] | > 200 | 64.1
8 | C=CC(=O)Nc1cccc(-c2cc(CN3CCOCC3)cc(NC(=O)CC)n2)c1 [Compound 68, N-(3-(4-(morpholinomethyl)-6-propionamidopyridin-2-yl)phenyl)acrylamide] | > 1000 | > 400

Second part, the compound after the results:

Row | IC50 (ITK) [nM] | IC50 (BTK) [nM] | SMILES
9 | 2.9 | 1.9 | C=CC(=O)Nc1cccc(-c2cc(CN3CCN(C(C)C)CC3)cc(Nc3ncc(C)s3)n2)c1 [Compound 54]
10 | 18.1 | 8.3 | C=CC(=O)Nc1ccc(C)c(-c2cc(CN3CCOCC3)cc(Nc3ncc(C)s3)n2)c1 [Compound 59, N-(4-methyl-3-(6-((5-methylthiazol-2-yl)amino)-4-(morpholinomethyl)pyridin-2-yl)phenyl)acrylamide]
11 | 13.5 | 9.5 | C=CC(=O)Nc1cccc(-c2cc(CN3CCN(C(=O)CC)CC3)cc(Nc3ncc(C)s3)n2)c1 [Compound 61, N (3(6(5methylthiazol-2-ylamino)-4-((4-propionylpiperazin-1-yl)methyl)pyridin-2-yl)phenyl)acrylamide]
12 | 15.7 | 18.1 | C=CC(=O)Nc1ccc(Cl)c(-c2cc(CN3CCOCC3)cc(Nc3ncc(C)s3)n2)c1 [Compound 64]
13 | 2.1 | 1.9 | C=CC(=O)N(C)c1cccc(-c2cc(CN3CCOCC3)cc(Nc3ncc(C)s3)n2)c1 [Compound 65]
14 | 3.7 | 1.3 | C=CC(=O)N(CC)c1cccc(-c2cc(CN3CCOCC3)cc(Nc3ncc(C)s3)n2)c1 [Compound 66, N-ethyl-N-(3-(6-(5-methylthiazol-2-ylamino)-4-(morpholinomethyl)pyridin-2-yl)phenyl)acrylamide]
15 | 8 | 3.3 | C=CC(=O)Nc1cccc(-c2cc(Cc3cccnc3)cc(Nc3cc(C)[nH]n3)n2)c1 [Compound 72, N-(3-(6-((5-methyl-1H-pyrazol-3-yl)amino)-4-(pyridin-3-ylmethyl)pyridin-2-yl)phenyl)acrylamide]
16 | 2.3 | 2.5 | C=CC(=O)Nc1cccc(-c2cc(Cc3cccnc3)cc(Nc3ncc(C)s3)n2)c1 [Compound 73, N-(3-(6-((5-methylthiazol-2-yl)amino)-4-(pyridin-3-ylmethyl)pyridin-2-yl)phenyl)acrylamide]
